Reference: patent US20240325398A1, “COMBINATION THERAPIES” (Infinity Pharmaceuticals, Inc., priority 2014, published 2024)

Key:
[1] = test system: ibrutinib-resistant SU-DHL-4 clones; assay: CTG (Cell Titer Glo) IC50, ibrutinib-resistant clones; assay type: cell-based; settings: ibrutinib clones 2B.3, 5C.3, 10B.3, 11D.3, 11G.3
Description: The DMSO stock for each compound was diluted to 5 mM or 1 mM with DMSO. A 1:1000 dilution was performed into the plated cells (10 uL) for a final of 1 uM or 5 uM (final DMSO […]). Cells were counted 2 times per week and cell densities were adjusted back to 2.5×10^5 c/mL as needed. Media/Compound was replenished as needed and Media/Compound was replaced 1× per week. Compound treatment lasted for 28 days. Compound was washed out for 1 week and cells were subsequently used in assays to determine resistance after 4 weeks of treatment.
The cell line pool was treated with compound for an additional 28 days prior to subcloning. Altogether, the cell line pool was under selective pressure for a total of 8 weeks.
Cell lines were subcloned at 3, 1, and 0.3 cells per well (cpw). 1:10 of conditioned medium (CM) was included in medium in addition to corresponding DMSO control or compound. During subcloning optimization experiments, the SU-DHL-4 cell line could only be subcloned in the presence of 1:10 conditioned medium. Conditioned medium (CM) was collected 4 days after splitting the parent cell line and when cells were approximately 90% confluent. Cells were spun down and the supernatant (CM) was collected down. […]
All cell lines subcloned grew out. […] Once expanded in a 24 well plate, the 12 clones per cell line were evaluated for viability by flow using the Dead_Live kit (Invitrogen #L23101).

GRANTA-519 = assay: Combination study, ATPLite 72 h, dose matrix (Synergy Score, CI50); settings: combination with Compound 1
HH = assay: as above; assay type: cell-based; settings: combination with Compound 1
Description: The method is described as follows.
Additive effect is CI=1.0. […] Antagonistic effect is CI>1.0.
The Synergy Score is calculated as: […]

OMP-2 = assay: as above; settings: combination with Compound 1; OPM-2
[2] = as above; settings: combination with Compound 1; OPM-2

| SMILES | cross-resistance of ibrutinib-resistant clones [1] | CI50 growth inhibition (GRANTA-519) | Synergy Score growth inhibition (GRANTA-519) | Synergy Score inhibition (GRANTA-519) | CI50 growth inhibition (HH) | CI50 inhibition (HH) | Synergy Score growth inhibition (HH) | Synergy Score inhibition (HH) | CI50 inhibition (OMP-2) | Synergy Score growth inhibition (OMP-2) | Synergy Score inhibition (OMP-2) | CI50 growth inhibition [2] |
| --- | --- | --- | --- | --- | --- | --- | --- | --- | --- | --- | --- | --- |
| C[C@H](Nc1ncnc2[nH]cnc12)c1cc2cccc(Cl)c2c(=O)n1-c1ccccc1 [Compound 1, (S)-3-(1-((9H-purin-6-yl)amino)ethyl)-8-chloro-2-phenylisoquinolin-1(2H)-one] | no cross-resistance |  |  |  |  |  |  |  |  |  |  |  |
| C[C@@H]1C[C@H]2[C@@H]3CCC4=CC(=O)C=C[C@]4(C)[C@@]3(F)[C@@H](O)C[C@]2(C)[C@@]1(O)C(=O)CO [dexamethasone, (8S,9R,10S,11S,13S,14S,16R,17R)-9-Fluoro-11,17-dihydroxy-17-(2-hydroxyacetyl)-10,13,16-trimethyl-6,7,8,9,10,11,12,13,14,15,16,17-dodecahydro-3H-cyclopenta[a]phenanthren-3-one] |  | S (S=0.01 to <0.5) | A3 (A3=>3) | A1 (A1=0.0001 to <1) | S (S=0.01 to <0.5) | S (S=0.01 to <0.5) | A3 (A3=>3) | A3 (A3=>3) | U (U=0.7 to <1) | A2 (A2=1 to <3) | A1 (A1=0.0001 to <1) | S (S=0.01 to <0.5) |
